Experiments:
Erythrocyte [1] = experiment: Hemolytic activity in human RBC assessed as hemolysis at 200 uM incubated for 1 hr by spectrophotometric analysis; type: toxicity, cell-based
[2] = Hemolytic activity in human RBC assessed as hemolysis at 12.5 uM incubated for 1 hr by spectrophotometric analysis relative to control; type: toxicity, cell-based, Erythrocyte; conditions: human red blood cells (erythrocytes), read-out: Activity
[3] = Selectivity index, ratio of IC50 for cytotoxicity against African green monkey Vero cells to IC50 for inhibition of bovine liver DHFR
Plasmodium falciparum [4] = experiment: Antimalarial activity against chloroquine-resistant Plasmodium falciparum W2 assessed as parasite growth inhibition incubated for 72 hrs by Malstat reagent based LDH assay; type: functional, organism-based; conditions: W2, 72 h
Plasmodium falciparum [5] = experiment: Antimalarial activity against chloroquine-sensitive Plasmodium falciparum NF54 assessed as parasite growth inhibition incubated for 72 hrs by Malstat reagent based LDH assay; type: functional, organism-based; conditions: NF54, 72 h
Leishmania donovani = experiment: Antileishmanial activity against promastigote stage of Leishmania donovani assessed as parasite growth inhibition incubated for 24 hrs by MTT assay; type: functional, organism-based
[6] = Cytotoxicity against human HEK293 cells assessed as cell growth at 50 uM incubated for 48 hrs by MTT assay relative to control; type: toxicity, cell-based; conditions: read-out: Activity
[7] = Safety index, ratio of IC50 for antimalarial activity against chloroquine-sensitive Plasmodium falciparum NF54 to IC50 for cytotoxicity against human HEK293 cells; type: toxicity, cell-based; conditions: HEK293 cells versus Plasmodium falciparum NF54, read-out: Ratio IC50
Dihydrofolate reductase = target: T1, Dihydrofolate reductase (Bos taurus, UniProt P00376); experiment: Inhibition of bovine liver DHFR incubated for 12 mins in presence of NADPH
T1 sequence (P00376 whole entry): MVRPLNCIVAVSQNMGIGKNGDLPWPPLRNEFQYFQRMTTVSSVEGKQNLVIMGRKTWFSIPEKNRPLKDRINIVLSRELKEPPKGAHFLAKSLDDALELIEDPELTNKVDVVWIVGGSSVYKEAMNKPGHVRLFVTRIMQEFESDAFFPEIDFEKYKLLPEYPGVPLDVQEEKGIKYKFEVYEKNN

Vero = experiment: Cytotoxicity against African green monkey Vero cells upto 1000 uM; type: toxicity, cell-based; conditions: chlorocebus sabaeus
Plasmodium falciparum [8] = experiment: Resistance index, ratio of IC50 for antimalarial activity against chloroquine-resistant Plasmodium falciparum W2 to IC50 for antimalarial activity against chloroquine-sensitive Plasmodium falciparum NF54; type: functional
[9] = Cytotoxicity against human HEK293 cells incubated for 48 hrs by MTT assay; type: toxicity, cell-based
Erythrocyte [10] = experiment: Hemolytic activity in human RBC assessed as hemolysis at 12.5 to 200 uM incubated for 1 hr by spectrophotometric analysis; type: toxicity, cell-based; conditions: dose 12.5-200 µM

SMILES	Activity (Erythrocyte [1])	hemolysis at 1 h, 12.5 µM [2]	Ratio IC50 [3]	IC50 (Plasmodium falciparum [4])	IC50 (Plasmodium falciparum [5])	IC50 (Leishmania donovani)	viability at 48 h, 50 µM [6]	selectivity ratio [7]	IC50 (Dihydrofolate reductase)	Activity (Vero)	Ratio IC50 (Plasmodium falciparum [8])	IC50 at 48 h [9]	Activity (Erythrocyte [10])
O=C(CN1CCN(C(c2ccccc2)c2ccccc2)CC1)Nc1nnc(COc2ccc3ccccc3c2)s1	Toxic	< 10%	535.245	> 10 µM	0.94 µM	3.55 µM	94.4%	53.2	1.87 µM	Non-Toxic	–	–	–
O=C(CN1CCN(c2cc(N3CCOCC3)ncn2)CC1)Nc1nnc(COc2ccc3ccccc3c2)s1	–	< 10%	–	> 10 µM	61.3 µM	6.61 µM	87.4%	0.82	–	–	–	–	–
O=C(CN1CCOCC1)Nc1nnc(COc2ccc3ccccc3c2)s1	–	< 10%	–	> 10 µM	10.7 µM	5.94 µM	70%	6.54	–	–	–	–	–
COc1ccc(N2CCN(CC(=O)Nc3nnc(COc4ccc5ccccc5c4)s3)CC2)cc1	–	< 10%	–	> 10 µM	> 200 µM	5.53 µM	58%	0.25	–	–	–	–	–
O=C(CN1CCN(c2ccnc3cc(Cl)ccc23)CC1)Nc1nnc(COc2ccc3ccccc3c2)s1	Toxic	< 10%	340.518	3.92 µM	3.93 µM	7.2 µM	43.3%	9.44	2.94 µM	Non-Toxic	0.99	70.4 µM	–
CCCCCCCCCCCCCCCCOP(=O)([O-])OCC[N+](C)(C)C [MILTEFOSINE]	–	–	–	–	–	0.19 µM	–	–	–	–	–	–	–
CCN(CC)CCCC(C)Nc1ccnc2cc(Cl)ccc12 (stereo unspecified) [CHLOROQUINE]	–	–	–	–	–	–	58.5%	–	–	–	–	17.2 µM	Toxic
CN1CCN(CC(=O)Nc2nnc(COc3ccc4ccccc4c3)s2)CC1	–	< 10%	–	> 10 µM	7.83 µM	7.09 µM	42.8%	8.85	–	–	–	69.2 µM	–
Cc1ccc(N2CCN(CC(=O)Nc3nnc(COc4ccc5ccccc5c4)s3)CC2)cc1	–	< 10%	–	> 10 µM	63.7 µM	6.19 µM	66.4%	0.79	–	–	–	–	–
C=C[C@H]1CN2CC[C@H]1C[C@H]2[C@H](O)c1ccnc2ccc(OC)cc12 [QUININE]	–	–	–	–	0.108 µM	–	–	–	–	–	–	–	–
O=C(CN1CCN(c2ccccc2O)CC1)Nc1nnc(COc2ccc3ccccc3c2)s1	Toxic	< 10%	400.881	> 10 µM	3.47 µM	4.34 µM	92.9%	14.4	2.5 µM	Non-Toxic	–	–	–
O=C(CN1CCCCC1)Nc1nnc(COc2ccc3ccccc3c2)s1	Toxic	< 10%	–	> 10 µM	21.5 µM	6.71 µM	86.9%	2.33	–	–	–	–	–
CCOC(=O)c1cnc2ccccc2c1N1CCN(CC(=O)Nc2nnc(COc3ccc4ccccc4c3)s2)CC1	–	< 10%	–	> 10 µM	28.9 µM	5.32 µM	59.8%	1.73	–	–	–	–	–

— ChEMBL document CHEMBL5356991, “Naphthyl bearing 1,3,4-thiadiazoleacetamides targeting the parasitic folate pathway as anti-infectious agents: in silico, synthesis, and biological approach” (RSC Med Chem, 2023)
